The values below are quoted from earlier work in US20150346185A1, “DIAGNOSIS OF CYSTIC FIBROSIS” (priority 2012, published 2015).

This data set addresses T1, Na+ channel ENaC (Homo sapiens, UniProt P37088+P51168+P51170).
T1 construct: from tissue; host or cells: human nasal epithelium (healthy individuals and cystic fibrosis patients)
To be noted: healthy patients, infusion of amiloride.

T1 sequence (P51168 whole entry): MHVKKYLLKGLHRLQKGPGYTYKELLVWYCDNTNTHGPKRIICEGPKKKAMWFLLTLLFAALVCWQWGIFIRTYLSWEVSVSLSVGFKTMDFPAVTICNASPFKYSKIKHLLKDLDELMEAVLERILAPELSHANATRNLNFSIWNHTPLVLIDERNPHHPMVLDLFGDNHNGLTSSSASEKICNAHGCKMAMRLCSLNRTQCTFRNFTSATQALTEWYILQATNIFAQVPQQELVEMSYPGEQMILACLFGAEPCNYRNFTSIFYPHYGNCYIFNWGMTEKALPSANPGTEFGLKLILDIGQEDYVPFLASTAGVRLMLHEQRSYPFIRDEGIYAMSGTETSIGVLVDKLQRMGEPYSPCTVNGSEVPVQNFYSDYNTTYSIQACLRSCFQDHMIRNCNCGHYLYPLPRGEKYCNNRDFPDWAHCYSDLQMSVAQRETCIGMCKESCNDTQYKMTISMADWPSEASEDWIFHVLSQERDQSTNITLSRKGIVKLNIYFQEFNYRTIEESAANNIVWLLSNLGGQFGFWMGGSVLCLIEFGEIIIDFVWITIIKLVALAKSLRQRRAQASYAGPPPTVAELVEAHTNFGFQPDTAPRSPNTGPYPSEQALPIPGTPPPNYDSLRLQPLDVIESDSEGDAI
T1 sequence (P37088 whole entry): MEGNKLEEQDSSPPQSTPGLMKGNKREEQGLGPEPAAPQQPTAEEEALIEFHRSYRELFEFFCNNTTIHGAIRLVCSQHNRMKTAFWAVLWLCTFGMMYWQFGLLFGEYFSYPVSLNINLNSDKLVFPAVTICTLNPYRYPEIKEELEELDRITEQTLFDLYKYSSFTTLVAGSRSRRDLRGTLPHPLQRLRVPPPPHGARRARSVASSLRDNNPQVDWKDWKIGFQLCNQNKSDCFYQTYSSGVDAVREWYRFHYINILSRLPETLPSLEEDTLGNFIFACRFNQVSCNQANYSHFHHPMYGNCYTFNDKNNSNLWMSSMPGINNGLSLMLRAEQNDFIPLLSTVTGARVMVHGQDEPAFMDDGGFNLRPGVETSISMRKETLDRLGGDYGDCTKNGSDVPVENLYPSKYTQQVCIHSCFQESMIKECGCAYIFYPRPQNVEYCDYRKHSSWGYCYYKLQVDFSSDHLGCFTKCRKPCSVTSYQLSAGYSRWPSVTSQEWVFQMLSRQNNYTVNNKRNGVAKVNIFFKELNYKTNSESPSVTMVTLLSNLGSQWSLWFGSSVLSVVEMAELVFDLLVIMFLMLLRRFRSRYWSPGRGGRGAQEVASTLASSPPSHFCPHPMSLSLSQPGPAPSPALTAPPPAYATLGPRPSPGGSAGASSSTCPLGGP
T1 sequence (P51170 whole entry): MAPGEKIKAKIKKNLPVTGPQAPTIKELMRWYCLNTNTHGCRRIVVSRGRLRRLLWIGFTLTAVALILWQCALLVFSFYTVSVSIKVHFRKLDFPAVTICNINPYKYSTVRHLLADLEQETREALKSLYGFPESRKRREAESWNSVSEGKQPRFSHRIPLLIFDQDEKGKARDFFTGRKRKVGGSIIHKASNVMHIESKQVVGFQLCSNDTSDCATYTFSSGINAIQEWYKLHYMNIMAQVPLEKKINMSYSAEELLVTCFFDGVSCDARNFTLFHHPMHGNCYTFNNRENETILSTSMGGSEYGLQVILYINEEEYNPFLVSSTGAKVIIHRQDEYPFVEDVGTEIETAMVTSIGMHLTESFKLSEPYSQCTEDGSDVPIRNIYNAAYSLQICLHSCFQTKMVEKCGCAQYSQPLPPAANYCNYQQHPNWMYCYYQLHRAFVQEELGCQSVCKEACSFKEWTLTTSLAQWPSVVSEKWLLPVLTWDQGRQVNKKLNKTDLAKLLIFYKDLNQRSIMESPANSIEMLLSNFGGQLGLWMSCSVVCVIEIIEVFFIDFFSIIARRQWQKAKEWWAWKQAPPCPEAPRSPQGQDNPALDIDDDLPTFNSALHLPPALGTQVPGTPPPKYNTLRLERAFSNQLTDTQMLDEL

As for `N=C(N)NC(=O)c1nc(Cl)c(N)nc1N` [amiloride], the “reduction of nasal transepithelial potential difference” value was 55%.
